Laboratory results published in PubChem BioAssay (NCI).
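Growth conditions: 96-well plates. Treatment: test compound, 48 hours, 5 concentrations. Analysis: linear interpolation between bracketing concentrations; unreached endpoints set to highest concentration. TGI: concentration producing complete growth inhibition.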

Key:
Test in all cases: inhibition of tumour cell growth, NCI panel, 48 h
RPMI-8226 leukemia = system: RPMI-8226 leukemia
DU-145 prostate = system: DU-145 prostate
UO-31 renal = system: UO-31 renal
LOX IMVI melanoma = system: LOX IMVI melanoma
MDA-N = system: MDA-N
NCI-H226 lung = system: NCI-H226 lung
UACC-62 melanoma = system: UACC-62 melanoma
NCI/ADR-RES ovarian = system: NCI/ADR-RES ovarian
EKVX NSCLC = system: EKVX NSCLC
SNB-75 CNS = system: SNB-75 CNS
NCI-H460 lung = system: NCI-H460 lung
OVCAR-4 ovarian = system: OVCAR-4 ovarian
HS 578T breast = system: HS 578T breast
KM12 colon = system: KM12 colon
A549 NSCLC = system: A549 NSCLC
UACC-257 melanoma = system: UACC-257 melanoma
SF-295 CNS = system: SF-295 CNS
OVCAR-8 ovarian = system: OVCAR-8 ovarian
SW-620 colon = system: SW-620 colon
MCF7 breast = system: MCF7 breast
CCRF-CEM leukemia = system: CCRF-CEM leukemia
HT29 colon = system: HT29 colon
MALME-3M melanoma = system: MALME-3M melanoma
SK-MEL-5 melanoma = system: SK-MEL-5 melanoma
K-562 leukemia = system: K-562 leukemia
SK-MEL-2 melanoma = system: SK-MEL-2 melanoma
OVCAR-5 ovarian = system: OVCAR-5 ovarian
ACHN renal = system: ACHN renal
HOP-62 NSCLC = system: HOP-62 NSCLC
A498 renal = system: A498 renal
MDA-MB-231 breast = system: MDA-MB-231 breast
TK-10 renal = system: TK-10 renal
SR leukemia = system: SR leukemia
M14 melanoma = system: M14 melanoma
IGROV1 ovarian = system: IGROV1 ovarian
SK-MEL-28 melanoma = system: SK-MEL-28 melanoma
SF-268 CNS = system: SF-268 CNS
HCC-2998 colon = system: HCC-2998 colon
SF-539 CNS = system: SF-539 CNS
HL-60(TB) leukemia = system: HL-60(TB) leukemia
MOLT-4 leukemia = system: MOLT-4 leukemia
SNB-19 CNS = system: SNB-19 CNS
PC-3 prostate = system: PC-3 prostate
T-47D breast = system: T-47D breast
HCT-15 colon = system: HCT-15 colon
HCT-116 colon = system: HCT-116 colon
NCI-H23 lung = system: NCI-H23 lung
COLO 205 colon = system: COLO 205 colon
786-0 renal = system: 786-0 renal
MDA-MB-435 = system: MDA-MB-435
CAKI-1 renal = system: CAKI-1 renal
U251 CNS = system: U251 CNS
SK-OV-3 ovarian = system: SK-OV-3 ovarian
SN12C renal = system: SN12C renal

O=C(/C=C/c1ccsc1)c1ccc(Cl)cc1
TGI (RPMI-8226 leukemia): 64.8 µM | TGI (DU-145 prostate): > 100 µM | TGI (UO-31 renal): > 100 µM | TGI (LOX IMVI melanoma): 47.8 µM | TGI (MDA-N): > 100 µM | TGI (NCI-H226 lung): > 100 µM | TGI (UACC-62 melanoma): > 100 µM | TGI (NCI/ADR-RES ovarian): > 100 µM | TGI (EKVX NSCLC): > 100 µM | TGI (SNB-75 CNS): > 100 µM | TGI (NCI-H460 lung): > 100 µM | TGI (OVCAR-4 ovarian): > 100 µM | TGI (HS 578T breast): > 100 µM | TGI (KM12 colon): > 100 µM | TGI (A549 NSCLC): > 100 µM | TGI (UACC-257 melanoma): > 100 µM | TGI (SF-295 CNS): > 100 µM | TGI (OVCAR-8 ovarian): > 100 µM | TGI (SW-620 colon): > 100 µM | TGI (MCF7 breast): > 100 µM | TGI (CCRF-CEM leukemia): 53.3 µM | TGI (HT29 colon): > 100 µM | TGI (MALME-3M melanoma): 95.3 µM | TGI (SK-MEL-5 melanoma): > 100 µM | TGI (K-562 leukemia): 95.7 µM | TGI (SK-MEL-2 melanoma): > 100 µM | TGI (OVCAR-5 ovarian): > 100 µM | TGI (ACHN renal): > 100 µM | TGI (HOP-62 NSCLC): > 100 µM | TGI (A498 renal): > 100 µM | TGI (MDA-MB-231 breast): > 100 µM | TGI (TK-10 renal): > 100 µM | TGI (SR leukemia): 43.7 µM | TGI (M14 melanoma): > 100 µM | TGI (IGROV1 ovarian): > 100 µM | TGI (SK-MEL-28 melanoma): > 100 µM | TGI (SF-268 CNS): > 100 µM | TGI (HCC-2998 colon): > 100 µM | TGI (SF-539 CNS): > 100 µM | TGI (HL-60(TB) leukemia): 49.8 µM | TGI (MOLT-4 leukemia): 43.7 µM | TGI (SNB-19 CNS): > 100 µM | TGI (PC-3 prostate): > 100 µM | TGI (T-47D breast): > 100 µM | TGI (HCT-15 colon): > 100 µM | TGI (HCT-116 colon): > 100 µM | TGI (NCI-H23 lung): > 100 µM | TGI (COLO 205 colon): > 100 µM | TGI (786-0 renal): > 100 µM | TGI (MDA-MB-435): > 100 µM | TGI (CAKI-1 renal): > 100 µM | TGI (U251 CNS): > 100 µM | TGI (SK-OV-3 ovarian): > 100 µM | TGI (SN12C renal): > 100 µM
